These results are taken from US20180125792A1, “NON-STEROIDAL ANTI-INFLAMMATORY DRUGS FOR COUGH” (BAYER CONSUMER CARE AG, priority 2006, published 2018).

Structures are written as SMILES.

For experiment [1] the following is noted: cited from earlier work.
Experiment [2] can be described thus: Symptomatic treatment of nonproductive cough in 3 volunteer patients in the final phase of a viral infection. The class given is in vivo, human. The method, then: The efficacy of ibuprofen in the symptomatic treatment of nonproductive cough was determined in 3 volunteer patients in the final phase of a viral infection. For this purpose, the patients received oral administration of 400 or 800 mg of ibuprofen (the daily dose was between 400 and 1200 mg). No other medicaments were taken by the patients during the viral infection.
It was observed after administration of ibuprofen that the number of attacks of coughing was reduced by more than 50% relative to the number of attacks of coughing before administration of ibuprofen.
The effects of ibuprofen declined after 6 to 8 hours and the cough reappeared in the former severity.

For experiment [3] the following is noted: 600 mg three times a day for 6 days; cited from earlier work.
Setting [4] is: oral 400 or 800 mg ibuprofen, patients' report.

Consider `CS(=O)(=O)Nc1ccc([N+](=O)[O-])cc1Oc1ccccc1` [nimesulide], for which the fever-reducing effect result in experiment [1] (5 days, nimesulide 2.5 mg/kg 2x a day vs paracetamol or ibuprofen 10 mg/kg 3x a day) is “better and faster than that of paracetamol or ibuprofen”.

With `CC(=O)Nc1ccc(O)cc1` [paracetamol], the “alleviation of the symptoms of cough” value in experiment [1] (5 days, paracetamol 10 mg/kg 3x a day vs ibuprofen or nimesulide) is “greater”.

On to `CC(C)Cc1ccc(C(C)C(=O)O)cc1` (stereo not drawn) [ibuprofen], for which, in experiment [1] (10 mg/kg, 30 children, uncontrolled study), the symptoms of cough entry is given as “reduction in the symptoms of cough”. In experiment [2] (oral 400 or 800 mg ibuprofen (daily dose 400-1200 mg), 3 patients), the “number of attacks of coughing reduced relative to the number before administration” value is “more than 50%”. Besides, in experiment [2] (setting [4]), the “intensity of the urge to cough” value is reported as “reduced” and the “severity of the attacks of coughing” value was “reduced”. In addition, the “patients' rest at night” value in experiment [2] (oral 400 or 800 mg ibuprofen, without additional cough suppressant) is “possible to improve the patients' rest at night”. For the same molecule, the “symptoms of cough after renewed administrations” value in experiment [2] (subsequent renewed administrations of ibuprofen) was “again led to the described improvement”. Further, the “number of coughing episodes compared with placebo” value in experiment [3] is “reduction in the number of coughing episodes”.
